Results: PubChem BioAssay AID1259411 (Chemical Carcinogenesis Research Information System (CCRIS), 2018)
Calls of active or inactive are those of the source. The rule behind the calls is not given here.

Test system: rodent carcinogenicity bioassays, tumor incidence
Test: CCRIS carcinogenicity studies
Summary of the method: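 Archive of carcinogenicity, mutagenicity, tumor promotion and tumor inhibition results drawn from journals, NCI reports and other sources, expert-reviewed; covers 1985-2011 and is no longer updated.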

In the case of `CCCO`, the carcinogen call (Species: DOG, Strain/Sex: BEAGLE/FEMALE, Route: GAVAGE, Dose: 0, 30, 180 MG/KG/D 7 D/WK FOR 52 WK (STUDY DURATION: 52 WK), Dose: 0, 30, 180 MG/KG/D 7 D/WK FOR 52 WK (STUDY DURATION: 52 WK)) was “inactive; negative”, the carcinogen call (Species: DOG, Strain/Sex: BEAGLE/MALE, Route: GAVAGE, Dose: 0, 30, 180 MG/KG/D 7 D/WK FOR 52 WK (STUDY DURATION: 52 WK), Dose: 0, 30, 180 MG/KG/D 7 D/WK FOR 52 WK (STUDY DURATION: 52 WK)) was “inactive; negative” and the carcinogen call (Species: MONKEY, Strain/Sex: MACACA ARCTODIES/MALE, Route: ORAL, Dose: 0, 0.25, 2.5, 25 MG/KG 1/D FOR 54 WK (STUDY DURATION: 54 WK), Dose: 0, 0.25, 2.5, 25 MG/KG 1/D FOR 54 WK (STUDY DURATION: 54 WK)) was “inactive; negative”. For the same compound, the carcinogen call (Species: MOUSE, Strain/Sex: SWISS/FEMALE, Route: GAVAGE, Dose: 0, 50, 500 MG/KG/D FOR 18 MO (STUDY DURATION: 18 MO), Dose: 0, 50, 500 MG/KG/D FOR 18 MO (STUDY DURATION: 18 MO)) was “inactive; negative”, the carcinogen call (Species: MOUSE, Strain/Sex: SWISS/MALE, Route: GAVAGE, Dose: 0, 50, 500 MG/KG/D FOR 18 MO (STUDY DURATION: 18 MO), Dose: 0, 50, 500 MG/KG/D FOR 18 MO (STUDY DURATION: 18 MO)) was “inactive; negative” and the carcinogen call (Species: RAT, Strain/Sex: SPRAGUE-DAWLEY/FEMALE, Route: GAVAGE, Dose: 0, 50, 500 MG/KG 1/D FOR 24 MO (STUDY DURATION: 24 MO), Dose: 0, 50, 500 MG/KG 1/D FOR 24 MO (STUDY DURATION: 24 MO)) was “inactive; negative”. For the same compound, the carcinogen call (Species: RAT, Strain/Sex: SPRAGUE-DAWLEY/MALE, Route: GAVAGE, Dose: 0, 50, 500 MG/KG 1/D FOR 24 MO (STUDY DURATION: 24 MO), Dose: 0, 50, 500 MG/KG 1/D FOR 24 MO (STUDY DURATION: 24 MO)) was “inactive; negative”.

In the case of `CCCI`, the carcinogen call (Species: MOUSE, Route: INTRAPERITONEAL, Tumor Site: Type of Lesion: LUNG) was “active; positive”.

In the case of `CC(C)CON=O`, the carcinogen call (Species: MOUSE, Strain/Sex: B6C3F1/FEMALE, Route: INHALATION, Dose: 0, 158, 315, 630 MG/M3 6 HR/D 5 D/WK FOR 103 WK (STUDY DURATION: 104 WK), Dose: 0, 158, 315, 630 MG/M3 6 HR/D 5 D/WK FOR 103 WK (STUDY DURATION: 104 WK), Tumor Site: Type of Lesion: LUNG: ALVEOLAR/BRONCHIOLAR ADENOMA, ALVEOLAR/BRONCHIOLAR ADENOMA OR CARCINOMA) was “active; positive”, the carcinogen call (Species: MOUSE, Strain/Sex: B6C3F1/MALE, Route: INHALATION, Dose: 0, 158, 315, 630 MG/M3 6 HR/D 5 D/WK FOR 103 WK (STUDY DURATION: 104 WK), Dose: 0, 158, 315, 630 MG/M3 6 HR/D 5 D/WK FOR 103 WK (STUDY DURATION: 104 WK), Tumor Site: Type of Lesion: LUNG: ALVEOLAR/BRONCHIOLAR ADENOMA, ALVEOLAR/BRONCHIOLAR ADENOMA OR CARCINOMA) was “active; positive” and the carcinogen call (Species: RAT, Strain/Sex: F344/FEMALE, Route: INHALATION, Dose: 0, 158, 315, 630 MG/M3 6 HR/D 5 D/WK FOR 103 WK (STUDY DURATION: 105 WK), Dose: 0, 158, 315, 630 MG/M3 6 HR/D 5 D/WK FOR 103 WK (STUDY DURATION: 105 WK), Tumor Site: Type of Lesion: LUNG: ALVEOLAR/BRONCHIOLAR ADENOMA, ALVEOLAR/BRONCHIOLAR CARCINOMA OR ADENOMA) was “active; positive”. For the same compound, the carcinogen call (Species: RAT, Strain/Sex: F344/MALE, Route: INHALATION, Dose: 0, 158, 315, 630 MG/M3 6 HR/D 5 D/WK FOR 103 WK (STUDY DURATION: 105 WK), Dose: 0, 158, 315, 630 MG/M3 6 HR/D 5 D/WK FOR 103 WK (STUDY DURATION: 105 WK), Tumor Site: Type of Lesion: LUNG: ALVEOLAR/BRONCHIOLAR ADENOMA, ALVEOLAR/BRONCHIOLAR CARCINOMA) was “active; positive”.

For `CCCCN(COC(C)=O)N=O`, the carcinogen call (Species: RAT, Strain/Sex: F344/FEMALE, Route: SUBCUTANEOUS, Dose: 6.6 MG/KG 1/WK FOR 10 WK, Tumor Site: Type of Lesion: INJECTION SITE: MALIGNANT FIBROUS HISTIOCYTOMA) was “active; positive” and the carcinogen call (Species: RAT, Strain/Sex: F344/MALE, Route: SUBCUTANEOUS, Dose: 6.6 MG/KG 1/WK FOR 10 WK, Tumor Site: Type of Lesion: INJECTION SITE: MALIGNANT FIBROUS HISTIOCYTOMA, LUNG: ADENOMA OR ADENOCARCINOMA OR SQUAMOUS CELL CARCINOMA) was “active; positive”.

With `Cc1cc(=O)[nH]c(=S)[nH]1` the carcinogen call (Species: HAMSTER, Route: ORAL, Tumor Site: Type of Lesion: THYROID GLAND) was “active; positive”, the carcinogen call (Species: MOUSE, Route: ORAL, Tumor Site: Type of Lesion: THYROID GLAND) was “active; positive” and the carcinogen call (Species: RAT, Route: ORAL, Tumor Site: Type of Lesion: KIDNEY, THYROID GLAND) was “active; positive”.

In the case of `CCN(Cc1cccc(S(=O)(=O)[O-])c1)c1ccc(C(=C2C=CC(=[N+](C)C)C=C2)c2ccc(N(CC)Cc3cccc(S(=O)(=O)O)c3)cc2)cc1`, the carcinogen call (Species: MOUSE, Strain/Sex: SWISS-WEBSTER/FEMALE, Route: DERMAL, Dose: 0, 1% IN 0.1 ML DISTILLED WATER 1/WK FOR 18 MO (STUDY DURATION: 18 MO)) was “inactive; negative”, the carcinogen call (Species: MOUSE, Strain/Sex: SWISS-WEBSTER/MALE, Route: DERMAL, Dose: 0, 1% IN 0.1 ML DISTILLED WATER 1/WK FOR 18 MO (STUDY DURATION: 18 MO)) was “inactive; negative” and the carcinogen call (Species: RAT, Route: ORAL, Tumor Site: Type of Lesion: MAMMARY GLAND, INTEGUMENTARY SYSTEM (SKIN)) was “active; positive”. The carcinogen call (Species: RAT, Route: SUBCUTANEOUS, Tumor Site: Type of Lesion: INJECTION SITE) was “active; positive”.

In the case of `C#CCOc1ccc(CCNC(=O)C(OCC#C)c2ccc(Cl)cc2)cc1OC` (stereo unspecified), the carcinogen call (Species: Mouse, Strain/Sex: C57BL/10J CD-1 / Female (50/Group), Route: Oral, Dose: 0, 13.2, 67.8, 284.6 mg/kg/day of 96.5% mandipropamid in diet for 80 wk, study duration 80 wk, Dose: 0, 13.2, 67.8, 284.6 mg/kg/day of 96.5% mandipropamid in diet for 80 wk, study duration 80 wk) was “inactive; negative”, the carcinogen call (Species: Mouse, Strain/Sex: C57BL/10J CD-1 / Male (50/Group), Route: Oral, Dose: 0, 10.6, 55.2, 222.7 mg/kg/day of 96.5% mandipropamid in diet for 80 wk, study duration 80 wk, Dose: 0, 10.6, 55.2, 222.7 mg/kg/day of 96.5% mandipropamid in diet for 80 wk, study duration 80 wk) was “inactive; negative” and the carcinogen call (Species: Rat, Strain/Sex: Alpk:AP SD (Wistar-derived)/Female (52/Group), Route: Oral, Dose: 0, 3.5, 17.6, 69.7 mg/kg/day of 96.5% mandipropamid in diet for 104 wk, study duration 104 wk, Dose: 0, 3.5, 17.6, 69.7 mg/kg/day of 96.5% mandipropamid in diet for 104 wk, study duration 104 wk) was “inactive; negative”. For the same compound, the carcinogen call (Species: Rat, Strain/Sex: Alpk:AP SD (Wistar-derived)/Male (52/Group), Route: Oral, Dose: 0, 3.0, 15.2, 61.3 mg/kg/day of 96.5% mandipropamid in diet for 104 wk, study duration 104 wk, Dose: 0, 3.0, 15.2, 61.3 mg/kg/day of 96.5% mandipropamid in diet for 104 wk, study duration 104 wk) was “inactive; negative”.

In the case of `C=C(F)F`, the carcinogen call (Species: RAT, Strain/Sex: SPRAGUE-DAWLEY/FEMALE, Route: GAVAGE, Dose: 0, 4.12, 8.25 MG/KG BW IN OLIVE OIL 1/D 4-5 D/WK FOR 52 WK (STUDY DURATION: LIFETIME), Dose: 0, 4.12, 8.25 MG/KG BW IN OLIVE OIL 1/D 4-5 D/WK FOR 52 WK (STUDY DURATION: LIFETIME), Tumor Site: Type of Lesion: [BRAIN WAS ONLY SITE EVALUATED]) was “inactive; negative” and the carcinogen call (Species: RAT, Strain/Sex: SPRAGUE-DAWLEY/MALE, Route: GAVAGE, Dose: 0, 4.12, 8.25 MG/KG BW IN OLIVE OIL 1/D 4-5 D/WK FOR 52 WK (STUDY DURATION: LIFETIME), Dose: 0, 4.12, 8.25 MG/KG BW IN OLIVE OIL 1/D 4-5 D/WK FOR 52 WK (STUDY DURATION: LIFETIME), Tumor Site: Type of Lesion: [BRAIN WAS ONLY SITE EVALUATED]) was “inactive; negative”.

In the case of `CCCCCCCC/C=C\CCCCCCCC(=O)O`, the carcinogen call (Species: MOUSE, Strain/Sex: B6C3F1/FEMALE, Route: ORAL, Dose: 0, 0.25, 1.0% IN DRINKING WATER FOR 96 WK (STUDY DURATION: 104 WK), Dose: 0, 0.25, 1.0% IN DRINKING WATER FOR 96 WK (STUDY DURATION: 104 WK)) was “inactive; negative”, the carcinogen call (Species: MOUSE, Strain/Sex: B6C3F1/MALE, Route: ORAL, Dose: 0, 0.25, 1.0% IN DRINKING WATER FOR 96 WK (STUDY DURATION: 104 WK), Dose: 0, 0.25, 1.0% IN DRINKING WATER FOR 96 WK (STUDY DURATION: 104 WK)) was “inactive; negative” and the carcinogen call (Species: RAT, Strain/Sex: F344/FEMALE, Route: ORAL, Dose: 0, 2.5, 5% IN DRINKING WATER FOR 108 WK (STUDY DURATION: 2 YR), Dose: 0, 2.5, 5% IN DRINKING WATER FOR 108 WK (STUDY DURATION: 2 YR)) was “inactive; negative”. The carcinogen call (Species: RAT, Strain/Sex: F344/MALE, Route: ORAL, Dose: 0, 2.5, 5% IN DRINKING WATER FOR 108 WK (STUDY DURATION: 2 YR), Dose: 0, 2.5, 5% IN DRINKING WATER FOR 108 WK (STUDY DURATION: 2 YR)) was “inactive; negative”.
